Values of other authors, collected in patent US20130085177A1, “COSMETIC COMPOSITION BASED ON ELLAGIC ACID OR A DERIVATIVE THEREOF AND ON A PARTICULAR MIXTURE OF SURFACTANTS” (priority 2010, published 2013).

## O=c1oc2c(O)c(O)cc3c(=O)oc4c(O)c(O)cc1c4c23 [ellagic acid, 2,3,7,8-tetrahydroxy(1)benzo-pyrano(5,4,3-cde)(1)benzopyran-5,10-dione]
  solubility in water and in the solvents and oils commonly used in cosmetic compositions: very low
